Data: BindingDB's records for doi:10.1021/acsmedchemlett.9b00625 (Rwth Aachen University, 2020)

How the values were obtained:
[1] = Inhibition of BRD4 in human HEL cells harboring JAK2 V617F mutant assessed as decrease in metabolic activity measured after 72 hrs by MTT assay
[2] = Inhibition of BRD4 in human MOLM-14 cells harboring FLT3-ITD mutant assessed as decrease in metabolic activity measured after 72 hrs by MTT assay

Structure (SMILES): CN1Cc2cc(N=[S@@](C)(=O)c3ccccc3)ccc2NC1=O
- IC50 [1]: 500 nM
- IC50 [2]: 1000 nM
